# From patent US9174932B2, “CaSR agonists” (AJINOMOTO CO., INC., priority 2008, dated 2015)
# Molecular target: T1, human CaSR (Homo sapiens, UniProt P41180, E1011Q)
# T1 construct: expressed in transfected cells; host or cells: 293E cells (HEK293 expressing EBNA1, ATCC CRL-10852), transient transfection of hCaSR/pcDNA3.1
# T1 sequence (P41180 20-1078 E1011Q): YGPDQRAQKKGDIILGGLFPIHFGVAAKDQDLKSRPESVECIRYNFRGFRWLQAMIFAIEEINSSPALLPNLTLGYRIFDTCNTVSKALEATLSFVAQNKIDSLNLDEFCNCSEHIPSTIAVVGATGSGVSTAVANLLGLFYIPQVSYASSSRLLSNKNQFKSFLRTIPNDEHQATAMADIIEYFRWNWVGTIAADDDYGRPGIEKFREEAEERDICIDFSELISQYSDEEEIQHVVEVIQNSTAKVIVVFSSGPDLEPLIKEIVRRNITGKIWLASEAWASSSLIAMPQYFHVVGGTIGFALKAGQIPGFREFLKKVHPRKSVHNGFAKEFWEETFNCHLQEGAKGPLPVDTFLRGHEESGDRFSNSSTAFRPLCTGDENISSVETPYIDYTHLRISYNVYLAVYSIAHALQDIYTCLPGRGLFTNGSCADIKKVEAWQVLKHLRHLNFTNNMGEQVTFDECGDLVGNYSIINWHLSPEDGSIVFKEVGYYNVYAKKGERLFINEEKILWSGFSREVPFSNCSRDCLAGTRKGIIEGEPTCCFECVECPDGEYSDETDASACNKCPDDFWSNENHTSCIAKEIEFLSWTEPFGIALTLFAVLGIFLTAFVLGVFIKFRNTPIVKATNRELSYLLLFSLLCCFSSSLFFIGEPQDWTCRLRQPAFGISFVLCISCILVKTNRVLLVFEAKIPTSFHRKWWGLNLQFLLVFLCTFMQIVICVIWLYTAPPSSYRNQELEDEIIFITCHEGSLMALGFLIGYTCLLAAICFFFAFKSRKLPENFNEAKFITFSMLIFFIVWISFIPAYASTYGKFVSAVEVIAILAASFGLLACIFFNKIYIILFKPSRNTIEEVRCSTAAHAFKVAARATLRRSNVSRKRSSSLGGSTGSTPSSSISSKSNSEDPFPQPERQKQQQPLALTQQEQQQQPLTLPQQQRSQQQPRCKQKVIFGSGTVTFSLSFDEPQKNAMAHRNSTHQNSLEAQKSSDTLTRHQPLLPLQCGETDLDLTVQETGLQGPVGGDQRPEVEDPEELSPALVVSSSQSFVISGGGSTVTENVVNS
# Experiment: Evaluation of CaSR agonistic activity (293E cells transfected with hCaSR, Ca2+ fluorescent indicator, FLIPR)
# Assay type: cell-based
# Details: 293E cells expressing human CaSR; concentration giving activation rate 50%
# Method: 293E cells (HEK293 cell expressing EBNA1, ATCC No. CRL-10852) were cultured in DMEM containing 10% fetal bovine serum (Dulbecco's modified Eagle medium containing […] Glucose, by NACALAI TESQUE, INC.), in the presence of 250 μg/mL of G418. The cells were spread on a petri dish of 10 cm diameter in 1.8×10^6 cells/15 mL. After leaving them in the CO2 incubator (5% CO2, 37° C.) for 24 hours, plasmid expressing human CaSR: hCaSR/pcDNA3.1 was transfected with a transfection reagent: Mirus TransIT 293 (by Takara Bio Inc.). After leaving it in the CO2 incubator for 24 hours, the cells were collected by DMEM containing 10% fetal bovine serum and seeded on poly-D-lysine coat 384 well plate (by Falcon) in 15,000 cells/well. After leaving them in the CO2 incubator for 24 hours, the medium was removed. Then, 50 μL/well of Ca^2+ fluorescent indicator: Calcium 4 Assay Kit (by Molecular Devices) that was dissolved in an assay buffer (146 mM NaCl, 5 mM KCl, 1 mM MgSO4, 1 mg/mL Glucose, 20 mM HEPES (pH 7.2), 1.5 mM CaCl2) was added thereto, and left at 37° C. for 1 hour and at room temperature for 30 minutes to absorb the fluorescent indicator. The 384 well plate was transferred to FLIPR (by Molecular Devices). Then, 12.5 μL/well of a compound that was dissolved in a 0.1% BSA containing assay buffer was added thereto, and change in fluorescence intensity was measured for 3 minutes. Meanwhile, Compound No. 20 was purchased from Bachem.
# The difference between the maximum value and the minimum value (RFU(Max−Min)) of the fluorescence intensity before and after adding a compound was automatically calculated by FLIPR. RFU(Max−Min) when adding a compound in maximum concentration was defined as 100%; and RFU(Max−Min) when adding DMSO instead of the compound in the same concentration as that of the compound was defined as 0%.
row,SMILES,EC50 [nM]
1,"COc1ccc(NC(=O)CC[C@H](N)C(=O)O)cc1S(=O)(=O)O [Compound No. 2, N^5-(4-methoxy-3-sulfophenyl)-L-glutamine]",2300
2,"COc1ccc(S(=O)(=O)O)cc1NC(=O)CC[C@H](N)C(=O)O [Compound No. 3, N^5-(2-methoxy-5-sulfophenyl)-L-glutamine]",560
3,"Cc1cc(C)c(S(=O)(=O)O)cc1NC(=O)CC[C@H](N)C(=O)O [Compound No. 4, N^5-(2,4-dimethyl-5-sulfophenyl)-L-glutamine]",59
4,"Cc1ccc(NC(=O)CC[C@H](N)C(=O)O)cc1S(=O)(=O)O [Compound No. 5, N^5-(4-methyl-3-sulfophenyl)-L-glutamine]",130
5,"N[C@@H](CCC(=O)Nc1cc(S(=O)(=O)O)cc([N+](=O)[O-])c1O)C(=O)O [Compound No. 6, N^5-(2-hydroxy-3-nitro-5-sulfophenyl)-L-glutamine]",2700
6,"N[C@@H](CCC(=O)Nc1cc(S(=O)(=O)O)ccc1O)C(=O)O [Compound No. 8, N^5-(2-hydroxy-5-sulfophenyl)-L-glutamine]",100
7,"N[C@@H](CCC(=O)Nc1ccc(Cl)c(S(=O)(=O)O)c1)C(=O)O [Compound No. 9, N^5-(4-chloro-3-sulfophenyl)-L-glutamine]",270
8,"N[C@@H](CCC(=O)Nc1cccc(S(=O)(=O)O)c1O)C(=O)O [Compound No. 10, N^5-(2-hydroxy-3-sulfophenyl)-L-glutamine]",17
9,"N[C@@H](CCC(=O)Nc1ccc(O)c(S(=O)(=O)O)c1)C(=O)O [Compound No. 11, N^5-(4-hydroxy-3-sulfophenyl)-L-glutamine]",86
10,"CN(C(=O)CC[C@H](N)C(=O)O)c1cccc(S(=O)(=O)O)c1 [Compound No. 12, N^5-methyl-N^5-(3-sulfophenyl)-L-glutamine]",200
11,"N[C@@H](COC(=O)Nc1cccc(S(=O)(=O)O)c1)C(=O)O [Compound No. 13, O-{[(3-sulfophenyl)amino]carbonyl}-L-serine]",72
12,"N[C@@H](CCC(=O)Nc1cccc(C(=O)O)c1)C(=O)O [Compound No. 14, 3-(L-γ-glutamylamino)benzoic acid]",2000
13,"N[C@@H](CCC(=O)Nc1cccc(C(=O)O)c1O)C(=O)O [Compound No. 15, 3-(L-γ-glutamylamino)-2-hydroxybenzoic acid]",34
14,"N[C@@H](CCC(=O)Nc1cc(Br)cc(C(=O)O)c1)C(=O)O [Compound No. 16, 3-bromo-5-(L-γ-glutamylamino)benzoic acid]",48
15,"COP(=O)(O)c1cccc(NC(=O)CC[C@H](N)C(=O)O)c1 [Compound No. 17, N^5-{3-[hydroxyl(methoxy)phosphoryl]phenyl}-L-glutamine]",2000
16,"N[C@@H](CCC(=O)Nc1cccc(P(=O)(O)O)c1)C(=O)O [Compound No. 18, N^5-(3-phosphonophenyl)-L-glutamine]",530
17,"N[C@@H](CCC(=O)Nc1cccc([N+](=O)[O-])c1)C(=O)O [Compound No. 19, N^5-(3-nitrophenyl)-L-glutamine]",400
18,"N[C@@H](CCC(=O)Nc1ccccc1)C(=O)O [Compound No. 20, N-γ-glutamyl-aniline]",940
19,"Cc1c(Cl)cc(NC(=O)CC[C@H](N)C(=O)O)cc1S(=O)(=O)O [Compound No. 21, N^5-(3-chloro-4-methyl-5-sulfophenyl)-L-glutamine]",5.7

row,SMILES,EC50 [nM]
1,"Cc1c(Cl)cc(S(=O)(=O)O)cc1NC(=O)CC[C@H](N)C(=O)O [Compound No. 22, N^5-(3-chloro-2-methyl-5-sulfophenyl)-L-glutamine]",1.4
2,"N[C@@H](CCC(=O)Nc1cc([N+](=O)[O-])cc(S(=O)(=O)O)c1O)C(=O)O [Compound No. 23, N^5-(2-hydroxy-5-nitro-3-sulfophenyl)-L-glutamine]",890
3,"N[C@@H](CCC(=O)Nc1cc(Cl)cc(C(=O)O)c1Cl)C(=O)O [Compound No. 24, 2,5-dichloro-3-(L-γ-glutamylamino)benzoic acid]",22
4,"N[C@@H](CCC(=O)Nc1cccc(C(=O)O)c1Cl)C(=O)O [Compound No. 25, 2-chloro-3-(L-γ-glutamylamino)benzoic acid]",970
5,"N[C@@H](CCC(=O)Nc1cc(C(=O)O)ccc1Cl)C(=O)O [Compound No. 26, 4-chloro-3-(L-γ-glutamylamino)benzoic acid]",160
6,"COc1c(NC(=O)CC[C@H](N)C(=O)O)cccc1C(=O)O [Compound No. 27, 2-methoxy-3-(L-γ-glutamylamino)benzoic acid]",150
7,"N[C@@H](CCC(=O)Nc1ccc(O)c(C(=O)O)c1)C(=O)O [Compound No. 28, 6-hydroxy-3-(L-γ-glutamylamino)benzoic acid]",330
8,"Cc1ccc(C(=O)O)cc1NC(=O)CC[C@H](N)C(=O)O [Compound No. 29, 4-methyl-3-(L-γ-glutamylamino)benzoic acid]",530
9,"N[C@@H](CCC(=O)Nc1cc(O)cc(C(=O)O)c1)C(=O)O [Compound No. 30, 5-hydroxy-3-(L-γ-glutamylamino)benzoic acid]",2900
10,"Cc1c(NC(=O)CC[C@H](N)C(=O)O)cccc1C(=O)O [Compound No. 31, 3-(L-γ-glutamylamino)-2-methyl-benzoic acid]",3700
11,"N[C@@H](CCC(=O)Nc1cc(Cl)cc(C(=O)O)c1)C(=O)O [Compound No. 32, 5-chloro-3-(L-γ-glutamylamino)benzoic acid]",8.8
12,"Cc1c(Cl)cc(NC(=O)OC[C@H](N)C(=O)O)cc1S(=O)(=O)O [Compound No. 33, O-{[(3-chloro-4-methyll-5-sulfophenyl)amino]carbonyl}-L-serine]",2.1
13,"N[C@@H](COC(=O)Nc1cc(Cl)cc(S(=O)(=O)O)c1O)C(=O)O [Compound No. 34, sodium 3-{[(2S)-2-amino-2-carboxyethoxycarbonyl]amino}-5-chloro-2-hydroxybenzenesulfonate]",1.9
14,"Cc1c(Cl)cc(S(=O)(=O)O)cc1NC(=O)OC[C@H](N)C(=O)O [Compound No. 35, O-{[(3-chloro-2-methyl-5-sulfophenyl)amino]carbonyl}-L-serine]",3.7
15,"COc1c(NC(=O)OC[C@H](N)C(=O)O)cc(Cl)cc1S(=O)(=O)O [Compound No. 36, O-{[(5-chloro-2-methoxy-3-sulfophenyl)amino]carbonyl}-L-serine]",3500
16,"N[C@@H](CCC(=O)Nc1cc(S(=O)(=O)O)ccc1Cl)C(=O)O [Compound No. 37, N^5-(2-chloro-5-sulfophenyl)-L-glutamine]",2.9
17,"N[C@@H](CCC(=O)Nc1ccc(S(=O)(=O)O)c(Cl)c1)C(=O)O [Compound No. 38, N^5-(3-chloro-4-sulfophenyl)-L-glutamine]",6700
18,"N[C@@H](CCC(=O)Nc1ccc(S(=O)(=O)O)c(I)c1)C(=O)O [Compound No. 40, N^5-(3-iodo-4-sulfophenyl)-L-glutamine]",7900
19,"N[C@@H](CCC(=O)Nc1cc(I)ccc1S(=O)(=O)O)C(=O)O [Compound No. 41, N^5-(5-iodo-2-sulfophenyl)-L-glutamine]",2300
